11 molecules from ChEMBL document CHEMBL1201862, “PubChem BioAssay data set” (2004) can be followed below.

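1) Cells in 96-well plates. 2) Compound, 48 h, 5 concentrations. 3) Linear interpolation between surrounding doses. 4) Unreached endpoint = highest concentration. The concentration for 50% growth inhibition is given as GI50.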 Calls of active or inactive are those of the source. Cut-off read from the data, not from the text of the source: active = GI50 up to about 1.1 µM and inactive = higher.

Among the test systems are RXF 393; OVCAR-5; HT-29; TK-10; HOP-92; COLO 205; MOLT-4; SNB-75; HOP-62; UACC-62; OVCAR-3; NCI-H522; A498; SF-268; SF-295; MCF7; ACHN; HCT-116; HCC 2998; NCI-H460.
What all share (assay): NCI tumour cell line growth inhibition, 48 h

For `O=C1c2ccccc2C(=O)c2c(Nc3cc4c5c(ccc6c7ccc8c9c(cc(Nc%10cccc%11c%10C(=O)c%10ccccc%10C%11=O)c(c3c56)c97)-c3ccccc3C8=O)C(=O)c3ccccc3-4)cccc21`, the GI50 with RXF 393 was 60.3 µM (inactive); in the experiment with OVCAR-5, > 100 µM (inactive); in the experiment with HT-29 it was > 100 µM (inactive); in the experiment on TK-10, 29.9 µM (inactive); with HOP-92, 41.8 µM (inactive); with COLO 205 it was > 100 µM (inactive). Further, the GI50 with MOLT-4 was 37.8 µM (inactive); in the experiment on SNB-75 it was 17.6 µM (inactive); in the experiment on HOP-62, 17 µM (inactive); in the experiment on UACC-62, > 100 µM (inactive); in the experiment on OVCAR-3, 41.2 µM (inactive); with NCI-H522, 71 µM (inactive). The GI50 is 26.1 µM (inactive) with A498; 18.8 µM (inactive) in the experiment with SF-268; 44 µM (inactive) in the experiment on SF-295; 83.2 µM (inactive) in the experiment with MCF7; 36.1 µM (inactive) in the experiment with ACHN; 88.9 µM (inactive) in the experiment on HCT-116.

Consider `C=C1CC(Cn2cc(C)c(=O)[nH]c2=O)(c2ccc(-c3ccccc3)cc2)OC1=O` (stereo unspecified), for which the GI50 in the experiment on HCC 2998 is 1.86 µM (inactive); in the experiment with NCI-H460, 6.95 µM (inactive); in the experiment on OVCAR-5 it was 9.46 µM (inactive); with HT-29, 0.875 µM (active); with TK-10, 1.4 µM (inactive); in the experiment on HOP-92 it was 1.95 µM (inactive). The GI50 is 0.984 µM (active) in the experiment on COLO 205; 0.964 µM (active) in the experiment with MOLT-4; 7.87 µM (inactive) with SNB-75; 13.1 µM (inactive) in the experiment with HOP-62; 1.76 µM (inactive) in the experiment on UACC-62; 1.21 µM (inactive) in the experiment on OVCAR-3. The GI50 with NCI-H522 is 0.841 µM (active); in the experiment with A498, 3.34 µM (inactive); in the experiment with SF-268, 2.26 µM (inactive); in the experiment on SF-295, 8.85 µM (inactive); with MCF7 it was 1.51 µM (inactive); in the experiment on ACHN, 3.07 µM (inactive). Moreover, the GI50 in the experiment on HCT-116 is 0.596 µM (active).

Turning to `CCC1CN(C(=O)c2ccccc2)C(Cc2c[nH]c3ccccc23)C(=O)C1CC(=O)OC` (stereo unspecified), the GI50 in the experiment on RXF 393 was > 100 µM (inactive); in the experiment on NCI-H460, 43.4 µM (inactive); in the experiment with OVCAR-5, > 100 µM (inactive); in the experiment with HT-29, 28 µM (inactive); in the experiment on TK-10 it was > 100 µM (inactive); in the experiment with HOP-92, > 100 µM (inactive). Besides, the GI50 in the experiment with COLO 205 was > 100 µM (inactive); in the experiment with MOLT-4, 27.7 µM (inactive); in the experiment with SNB-75 it was 88.3 µM (inactive); in the experiment with HOP-62, 39 µM (inactive); with UACC-62, 32.1 µM (inactive); in the experiment on NCI-H522, 50.9 µM (inactive). The GI50 was 1.09 µM (active) with A498; > 100 µM (inactive) in the experiment on SF-268; > 100 µM (inactive) in the experiment on SF-295; 57.5 µM (inactive) in the experiment with MCF7; > 100 µM (inactive) in the experiment on ACHN.

As for `Cc1ccc(S(=O)(=O)N(CCN)c2cc3c4c(c2)Oc2cccc5c2C4c2c(cccc2O3)O5)cc1`, the GI50 is > 100 µM (inactive) with HCC 2998; > 100 µM (inactive) in the experiment with NCI-H460; 21.2 µM (inactive) in the experiment with OVCAR-5; 14.9 µM (inactive) in the experiment with HT-29; 48.9 µM (inactive) with TK-10; 0.9 µM (active) in the experiment on HOP-92. Moreover, the GI50 was 22.6 µM (inactive) in the experiment on COLO 205; 18.5 µM (inactive) in the experiment on MOLT-4; 12.6 µM (inactive) in the experiment on SNB-75; 15.4 µM (inactive) in the experiment with HOP-62; 47.3 µM (inactive) with UACC-62; 20 µM (inactive) with OVCAR-3. In addition, the GI50 in the experiment with A498 was 55.3 µM (inactive); in the experiment with SF-268 it was 14.4 µM (inactive); in the experiment with SF-295, 21.9 µM (inactive); in the experiment with MCF7, 20.7 µM (inactive); in the experiment on ACHN, 44.7 µM (inactive); in the experiment on HCT-116, 16.3 µM (inactive).

`CC1CCCCNC1=S` (stereo unspecified): the GI50 with RXF 393, in the experiment with NCI-H460, in the experiment with OVCAR-5, in the experiment with HT-29, in the experiment on TK-10 and with HOP-92 was > 10 µM (inactive) each time. Moreover, the GI50 in the experiment on MOLT-4, in the experiment with SNB-75, in the experiment with HOP-62, in the experiment on UACC-62, in the experiment with OVCAR-3 and in the experiment on A498 was > 10 µM (inactive) throughout. Moreover, the GI50 with SF-268, in the experiment with SF-295, in the experiment with MCF7 and in the experiment on ACHN was > 10 µM (inactive) each time.

Turning to `O=C1/C(=C/c2cccc([N+](=O)[O-])c2)N=C(c2ccccc2)N1c1nc2ccc(Sc3ccccc3)cc2[nH]1`, the GI50 in the experiment with HCC 2998 is 67.6 µM (inactive); in the experiment with RXF 393, 74.3 µM (inactive); in the experiment on NCI-H460, 25 µM (inactive); in the experiment on OVCAR-5 it was > 100 µM (inactive); in the experiment on HT-29 it was 45.2 µM (inactive); with TK-10, 71.4 µM (inactive). Besides, the GI50 was 71.4 µM (inactive) with HOP-92; 31.8 µM (inactive) with COLO 205; 34.8 µM (inactive) in the experiment with MOLT-4; 52.4 µM (inactive) with SNB-75; 83 µM (inactive) in the experiment on HOP-62; 36.1 µM (inactive) in the experiment on UACC-62. For the same molecule, the GI50 with NCI-H522 is 32.9 µM (inactive); in the experiment with A498, 87.7 µM (inactive); in the experiment on SF-268 it was 39 µM (inactive); with SF-295 it was 35.7 µM (inactive); in the experiment with MCF7, 31.5 µM (inactive); in the experiment with ACHN, > 100 µM (inactive). Besides, in the experiment on HCT-116, the GI50 is 41.6 µM (inactive).

As for `Cn1c2ccccc2n2c(=O)c(-c3ccc(O)cc3)nnc12`, the GI50 in the experiment with HCC 2998 is > 100 µM (inactive); in the experiment with NCI-H460, 87.3 µM (inactive); with OVCAR-5, > 100 µM (inactive); in the experiment with HT-29, > 100 µM (inactive); in the experiment with TK-10, > 100 µM (inactive); with HOP-92 it was > 100 µM (inactive). In addition, the GI50 with COLO 205 was > 100 µM (inactive); with MOLT-4, > 100 µM (inactive); in the experiment with SNB-75 it was 25.8 µM (inactive); with HOP-62 it was 42.4 µM (inactive); in the experiment on NCI-H522 it was 96.8 µM (inactive); in the experiment on A498, > 100 µM (inactive). The GI50 in the experiment on SF-268 was 64.7 µM (inactive); in the experiment with SF-295, 18.3 µM (inactive); in the experiment on MCF7, > 100 µM (inactive); in the experiment on ACHN, 70 µM (inactive); in the experiment on HCT-116 it was > 100 µM (inactive).

Consider `c1csc(-c2ccsc2-c2ccsc2)c1`, for which the GI50 in the experiment with HCC 2998 was 28.3 µM (inactive); in the experiment on RXF 393, 25.6 µM (inactive); in the experiment on NCI-H460, 97.9 µM (inactive); in the experiment on OVCAR-5, > 100 µM (inactive); in the experiment with HT-29 it was > 100 µM (inactive); in the experiment on TK-10 it was > 100 µM (inactive). In addition, the GI50 with HOP-92 is > 100 µM (inactive); in the experiment on COLO 205 it was 73.8 µM (inactive); with MOLT-4 it was 28.4 µM (inactive); in the experiment with SNB-75 it was > 100 µM (inactive); in the experiment with HOP-62, > 100 µM (inactive); with UACC-62, > 100 µM (inactive). Moreover, the GI50 in the experiment with OVCAR-3 is 16.8 µM (inactive); in the experiment with A498 it was > 100 µM (inactive); in the experiment with SF-268, 92.5 µM (inactive); in the experiment with SF-295, 57.4 µM (inactive); with MCF7, > 100 µM (inactive); in the experiment with ACHN, > 100 µM (inactive). The GI50 in the experiment on HCT-116 was 60.8 µM (inactive).

In the case of `CCOC(=O)CC[C@H](NC(=O)N[C@H](C)c1ccccc1)C(=O)OCC`, the GI50 with HCC 2998 is 25.9 µM (inactive); in the experiment on NCI-H460, > 100 µM (inactive); in the experiment with OVCAR-5, > 100 µM (inactive); with HT-29 it was > 100 µM (inactive); in the experiment on TK-10 it was 42.8 µM (inactive); in the experiment on HOP-92 it was 22 µM (inactive). For the same molecule, the GI50 in the experiment on COLO 205 was 18.7 µM (inactive); with MOLT-4, 20.1 µM (inactive); in the experiment on HOP-62, > 100 µM (inactive); in the experiment with UACC-62, 16.1 µM (inactive); in the experiment with OVCAR-3 it was 18 µM (inactive); with A498, > 100 µM (inactive). Moreover, the GI50 with SF-295 is > 100 µM (inactive); with MCF7 it was 32.7 µM (inactive); in the experiment on ACHN, 53.5 µM (inactive); with HCT-116, > 100 µM (inactive).

`CCCC1CCC(=C2C(=O)CCC2=O)O1` (stereo unspecified): the GI50 in the experiment on HCC 2998, with RXF 393, with NCI-H460, in the experiment with OVCAR-5, in the experiment with HT-29 and with TK-10 was > 100 µM (inactive) each time. For the same molecule, the GI50 in the experiment on HOP-92 is > 100 µM (inactive); in the experiment with COLO 205 it was > 100 µM (inactive); in the experiment on MOLT-4 it was 0.849 µM (active); in the experiment with SNB-75 it was 4.91 µM (inactive); in the experiment with HOP-62 it was > 100 µM (inactive); in the experiment on UACC-62, > 100 µM (inactive). Moreover, the GI50 in the experiment on OVCAR-3, in the experiment on NCI-H522, with SF-268, in the experiment with SF-295, in the experiment on MCF7 and in the experiment with ACHN was > 100 µM (inactive) each time. Moreover, the GI50 in the experiment on HCT-116 was > 100 µM (inactive).

Consider `C/C=C1/CN2CC[C@@H]3c4ccccc4N4[C@H](C(=O)OC)[C@H]1C[C@H]2[C@]34/C=C/C1=COC[C@@H]2[C@H]1C[C@H]1c3c(c4ccccc4n3C)C[C@@H]2N1C`, for which the GI50 with HCC 2998 was 0.345 µM (active); in the experiment on RXF 393, 4.19 µM (inactive); in the experiment on NCI-H460 it was 4.04 µM (inactive); in the experiment with OVCAR-5 it was 4.33 µM (inactive); with HT-29, 2.77 µM (inactive); with TK-10 it was 3.86 µM (inactive). Further, the GI50 in the experiment with HOP-92 is 4.28 µM (inactive); in the experiment with COLO 205 it was 3.4 µM (inactive); with MOLT-4 it was 4.02 µM (inactive); in the experiment with HOP-62, 3.82 µM (inactive); in the experiment on UACC-62 it was 4.86 µM (inactive); in the experiment on OVCAR-3, 4.33 µM (inactive). Moreover, the GI50 is 4.59 µM (inactive) in the experiment with A498; 3.61 µM (inactive) in the experiment on SF-268; 4.45 µM (inactive) with SF-295; 4.55 µM (inactive) with MCF7; 4.03 µM (inactive) with ACHN; 3.89 µM (inactive) with HCT-116.
